Measurements taken from patent US20220098197A1, “SALTS OF HETEROCYCLIC COMPOUND AND USE THEREOF” (priority 2019, published 2022).

Assays:
[1] = tested on: isolated peritoneal macrophages; assay: RT-PCR analysis, LPS- or PGD2-stimulated peritoneal macrophages; type: cell-based, mice; conditions: CT-NA 10 and 100 μM, P<0.05 or P<0.01
Experimental: The method was briefly described as follows. Thioglycolate (4%) was intraperitoneally injected to mice at a dose of 20 ml/kg of body weight for three consecutive days. 48 h after the last thioglycolate injection (on day 5), the peritoneal macrophages were isolated from the peritoneal lavage of the euthanized mice. The isolated peritoneal macrophages were added to a 12-well plate (4×10^5/well) and cultured at 37° C. Non-adherent cells were removed by gently washing three times with warm PBS. At this time, more than 90% of the cells were macrophages, which were cultured in DMEM/high glucose medium containing penicillin (100 U/ml), streptomycin (100 μg/ml) and 10% FBS at 37° C. After acclimation, serum-free DMEM/high glucose was added to a 12-well plate for 10-12 hrs, and then treated with different concentrations of LPS ([…]) for 24 hrs. Afterward, the supernatant of the peritoneal macrophages was collected to measure the protein level of PGD2 using ELISA kits according to the method of the instructions.
For ELISA and RT-PCR, RAW 264.7 macrophages were acclimated to two 12-well plates at 70-80% confluence. Thereafter, the medium in the 12-well plate was replaced with serum-free RPMI-1640 medium for 10-12 hrs and then exposed to CT-NA (10 and 100 μM) for 1 hour. […]

[2] = tested on: LPS-induced ALI mice; assay: LPS-induced ALI model: oxygen saturation (SO2); type: in vivo, Balb/c mice; conditions: CT-NA 10 or 30 mg/kg (P<0.01, dose-dependent), Dex 1 mg/kg; 24 hrs after LPS
Experimental: Specific pathogen-free (SPF) Balb/c mice (♂/♀; 20-26 g; 8 weeks old) were purchased from Shanghai SIPPR-BK Experimental Animal Co., Ltd. Mice were kept in an isolated ventilated cage in an environment of 40-60% humidity, 24±2° C., and 12 hrs/12 hrs dark-light cycle, and had free access to food and water. The method for preparing the LPS-induced ALI model was simply described as follows. The mice were randomly divided into a control group (12 mice) and an LPS group (48 mice). The LPS group (48 mice) was further divided into four subgroups (12 mice in each subgroup). The unanaesthetized mice in the four subgroups of LPS were intragastrically administered with normal saline (NS), CT-NA at 10 mg/kg or 30 mg/kg, and Dex at 1 mg/kg, respectively. One hour later, the mice were anesthetized with sodium pentobarbital (intraperitoneal injection at 40 mg/kg), and then subjected to intratracheal instillation of NS to control group and LPS (4 mg/kg) to all LPS subgroups. 12 hrs later, the unanaesthetized mice of the LPS group were intragastrically administered with NS, CT-NA at 10 mg/kg or 30 mg/kg, or Dex at 1 mg/kg, respectively (FIG. 16). […] 24 hrs after LPS challenge, the oxygen saturation (SO2) of all mice was measured by a Moor VMS-OXY™ instrument which measured SO2 (%) in the microcirculation at the wavelength range of 500 to 650 nm. […]

[3] = tested on: LPS-induced ALI mice; assay: LPS-induced ALI model: lung weight coefficient; type: in vivo, Balb/c mice; conditions: CT-NA 10 or 30 mg/kg (P<0.01, dose-dependent), Dex 1 mg/kg; 24 hrs after LPS
Experimental: Specific pathogen-free (SPF) Balb/c mice (♂/♀; 20-26 g; 8 weeks old) were purchased from Shanghai SIPPR-BK Experimental Animal Co., Ltd. Mice were kept in an isolated ventilated cage in an environment of 40-60% humidity, 24±2° C., and 12 hrs/12 hrs dark-light cycle, and had free access to food and water. The method for preparing the LPS-induced ALI model was simply described as follows. The mice were randomly divided into a control group (12 mice) and an LPS group (48 mice). The LPS group (48 mice) was further divided into four subgroups (12 mice in each subgroup). […] 24 hrs after LPS challenge, the oxygen saturation (SO2) of all mice was measured by a Moor VMS-OXY™ instrument which measured SO2 (%) in the microcirculation at the wavelength range of 500 to 650 nm. […]
The mice were euthanized to expose the trachea, and then the right lungs were lavaged three times with 0.4 mL/time of sterile normal saline containing bovine serum albumin (BSA) and 5000 IU/L heparin to collect the BALF via tracheal tube. […] The removed lung tissues were weighted after aspirating the surface blood, and the lung weight coefficient was calculated. The lung weight coefficient was an indicator of pulmonary edema, and it was measured by dividing the individual lung weight of each mouse by its total body weight.

[4] = tested on: RAW264.7 macrophages; assay: In vitro ELISA assay, LPS- or PGD2-stimulated RAW264.7; type: cell-based, mouse; conditions: CT-NA 10 and 100 μM, dose-dependent
Experimental: (§1) For ELISA and RT-PCR, RAW 264.7 macrophages were acclimated to two 12-well plates at 70-80% confluence. Thereafter, the medium in the 12-well plate was replaced with serum-free RPMI-1640 medium for 10-12 hrs and then exposed to CT-NA (10 and 100 μM) for 1 hour. One hour later, one 12-well plate was treated with LPS (100 ng/ml) for 24 hrs, and the other was treated with PGD2 (10 μM) for 24 hrs. After the treatment, the supernatant of the treated cells was collected to measure the protein levels of TNF-α, IL-1β, IL-6, and KC using ELISA kits according to the method of the instructions. Subsequently, RNA samples from each treated plate were extracted and reverse-transcripted into cDNA with HiScript5xQRTSuperMix, and then subjected to RT-PCR using BioRad CFX96 Touch™ real-time PCR detection system (San Diego, Calif.). Similarly, total RNAs extracted from treated isolated peritoneal macrophages were subjected to analyze the mRNA levels of IL-10, TNF-α, IL-6 and KC. The primers used in the RT-PCR reaction were shown in Table 2. β-actin was used as an internal control. The RT-PCR reactions were triplicated and the relative expression of target mRNA was normalized by the respective β-actin.

[5] = tested on: RAW264.7 macrophages; assay: RT-PCR analysis, LPS- or PGD2-stimulated RAW264.7; type: cell-based, mouse; conditions: CT-NA 10 and 100 μM, P<0.05 or P<0.01
Experimental: as §1

With CN([C@@H]1CCc2c(CC(=O)[O-])c3cccnc3n2C1)S(=O)(=O)c1ccc(F)cc1.[Na+] [Sodium salt hydrate] the “mRNA expressions of IL-1β, TNF-α, IL-6 and KC, LPS-stimulated” value ([1]; LPS, dose-dependent) was “reduced”, the “mRNA expressions of IL-1β, TNF-α, IL-6 and KC, PGD2-stimulated” value ([1]; PGD2, dose-dependent) was “reduced” and the “oxygen saturation (SO2)” value [2] was “significantly increased”. The “lung wet weight coefficient” value [3] was “notably reduced”, the “protein expression of IL-1β, TNF-α, IL-6 and KC in response to LPS” value ([4]; LPS (100 ng/ml) 24 hrs) was “inhibited” and the “protein expression of IL-1β, TNF-α, IL-6 and KC in response to PGD2” value ([4]; PGD2 (10 μM) 24 hrs) was “inhibited”. The “mRNA expressions of IL-1β, TNF-α, IL-6 and KC, LPS-stimulated” value ([5]; LPS, dose-dependent) was “reduced” and the “mRNA expressions of IL-1β, TNF-α, IL-6 and KC, PGD2-stimulated” value ([5]; PGD2, dose-dependent) was “reduced”.
